In patent US9359405B2, “Antagonists of the interleukin-1 receptor” (Phlogo ApS, priority 2011, dated 2016):
No end group written: not given here.

Columns and labels:
[1] = system: collagen-induced arthritis (CIA); assay: Collagen-induced arthritis in rats, treatment from day 15 (Example 7); type: in vivo, rat; conditions: 3.3 and 10 mg/kg s.c. daily from day 15
From the text: Rheumatoid arthritis is a chronic, inflammatory, systemic autoimmune disease that affects about 1% of the general population in Western countries. Collagen-induced arthritis (CIA) in rats is a widely employed animal model for the screening of anti-inflammatory compounds. Collagen bovine, type II (CII, Cat.no.20021, Lot 090209, Chondrex, USA), Complete Freund's Adjuvant, containing 0.1% of Mycobacterium tuberculosis (CFA, Cat.no. F5581, Lot 049K8700, Sigma-Aldrich), Incomplete Freund's Adjuvant (IFA, Cat.no. F5506, Lot 058K8702, Sigma). PBS (Panum Institute, Copenhagen University). Isofluran (Baxter). Animals were immunized twice: on day 0 (CII+CFA) and on day 10 (CII+IFA, booster). On day 15 the mean clinical score reached a value of 5.0 and all animals were divided into 3 groups so that the severity of disease (mean clinical score) in all groups was almost equal. The peptide (two doses, 3.3 and 10 mg/kg) was administered subcutaneously daily starting at day 15. The clinical evaluation of the arthritis severity was assessed using the following grading system: O— no redness or swelling in foot and palm; 1—slight swelling or redness in metatarsophalangeal joint and ankle joint foot or palm; 2—progressed swelling/inflammation and redness from ankle to mid foot or in entire palm; 3—swelling/inflammation of entire foot except toes; 4—swelling and inflammation of entire foot including toes.

[2] = system: cerebellar granule neurons; assay: Survival assay, cerebellar granule neurons, low-potassium apoptosis; type: cell-based, rat; conditions: 5 mM KCl, 2 days
Protocol: Survival assay: Primary cultures of CGN were plated at a density of 100,000 cells/cm2 on poly-L-lysine coated 8-well permanox slides in Neurobasal-A medium (Gibco BRL) supplemented with 2% (v/v) B27, 0.5% (v/v) glutamax, 100 units/mL penicillin, 100 µg/mL streptomycin and KCl, making the final concentration of KCl in the medium 40 mM. 24 hours after plating, cytosine-b-D-arabinofuranoside (Ara-C; Sigma-Aldrich) was added to a final concentration of 10 μM to avoid proliferation of glial cells, after which the neurons were allowed to differentiate for a further 6 days at 37° C. Apoptotic cell death was induced by washing twice and changing the medium to Basal Medium Eagle (BME; Gibco BRL) supplemented with 1% (v/v) glutamine, 100 U/mL penicillin and 100 µg/mL streptomycin, 3.5 g D-glucose/L and 1% (v/v) sodium pyruvate (Gibco BRL) together with various concentrations of peptide. Thereby the concentration of potassium in the cultures was reduced to 5 mM KCl (Ditlevsen et al., 2003). Two days after induction of apoptosis, the cells were fixed with 4% (v/v) formaldehyde and stained with Hoechst 33258 as described for the survival assay employing hippocampal neurons.

[3] = system: IL1β-activated AMJ2-C8 macrophage cells; assay: TNFα secretion by IL1β-activated macrophages (L929/MTS bioassay); type: cell-based; conditions: IL1β 1.2 μM
Protocol: The Ilantafin peptide or IL1Ra or IL1RI was added to cultures of macrophages (AMJ2-C8) seeded in 6-well multi-dishes (Nunc) (2.5×10^5 cells/well). After 24 h of incubation at 37° C., IL1β (1.2 μM) was added to the cultures to activate the macrophages. L929 cells were seeded in a 96-well plate at a density of 2×10^5 cells/mL. Both cell cultures were incubated for 24 h at 37° C. Conditioned medium from the macrophage cultures was collected and added to the fibroblast cultures together with 0.6 μg/well actinomycin. D (Sigma-Aldrich). Finally, after 24 h of incubation at 37° C., 20 μl of 3-(4,5-dimethylthiazol-2-yl)-5-(3-carboxymethoxyphenyl)-2-(4-sulfophenyl)-2H-tetrazolium (MTS) (Promega, Madison, Wis., USA) was added to each well and the plates were incubated protected from light, at 37° C., for ˜45 min and the optical density was measured at 490 nm in a Sunrise absorbance reader (Tecan, Männedorf, Switzerland). In order to calculate the amount of TNF-α in the conditioned medium, a standard curve was obtained by treating fibroblasts with different concentrations of TNF-α (R&D systems, Minneapolis, Minn., USA).

[4] = system: NF-κB activated by IL1β (IL1RI signaling), HEK-Blue IL1β cells; assay: IL1RI signaling assay, HEK-Blue IL1β reporter cells (NF-κB/SEAP); type: cell-based; conditions: IL1β 1.2 μM
From the text: (§1) IL1RI signaling assay: Commercially available Blue™ Cytokine Reporter Cell technology from InvivoGen (Denmark distributor: Sigma-Aldrich Denmark) was used. It is represented by an expanding family of engineered cell lines designed to provide a simple, rapid, and reliable method of monitoring the activation of signaling pathways induced by key cytokines. HEK-Blue™ IL1β cells are specifically engineered to selectively respond to IL1β, and they feature the secreted embryonic alkaline phosphatase (SEAP) reporter gene under the control of an NF-κB-inducible promoter. […] A target/receptor-specificity of the Ilantafin effect was verified employing HEK-Blue™ IL6 cells.

[5] = system: STAT signalling induced by IL6, HEK-Blue IL6 cells; assay: Target specificity, HEK-Blue IL6 cells; type: cell-based
From the text: as §1

[6] = Peptide solubility on reconstitution; type: physicochemical
From the text: Upon receiving the peptides from the synthesizing company (as powder), they were reconstituted in water, in PBS or in medium. Thus it is immediately apparent whether a peptide is soluble or not.

[7] = system: cerebellar granule neurons; assay: Neurite outgrowth in primary cerebellar granule neurons; type: cell-based, rat; conditions: for neurite outgrowth: 24 h, primary cerebellar neurons
Protocol: Cerebellar granular neurons (CGN) were prepared from 3 or 7 postnatal (P) day Wistar rats (Charles River, Sulzfeld, Germany or Taconic, Ejby, Denmark). Cerebella were cleared of meninges and blood vessels, roughly homogenized by chopping, and trypsinized with trypsin from Sigma-Aldrich (Brøndby, Denmark). The neurons were washed in the presence of DNAse 1 and soybean trypsin inhibitor (Sigma-Aldrich), and cellular debris was pelleted by centrifugation before plating. CGNs were plated at a density of 10,000 cells/well onto uncoated eight-well Lab-Tek chamber slides (NUNC, Slangerup, Denmark) in Neurobasal-A medium supplemented with 0.4% (w/v) BSA. Peptides or proteins at various concentrations were added to the medium immediately after plating, and cells were maintained at 37° C. and 5% CO2 for 24 h. Cultures then were fixed, blocked and incubated with polyclonal rabbit antibody against rat GAP-43 (Chemicon, Temecula, Calif., USA) followed by incubation with secondary Alexa Fluor488 goat anti-rabbit antibody (Molecular Probes, Eugene, Oreg., USA) as previously described (Neiiendam et al., 2004). The immunostained cultures were all recorded by computer-assisted fluorescence microscopy using a Nikon Diaphot inverted microscope (Nikon, Japan) equipped with a Nikon Plane 20× objective. Images were captured with a charge-coupled device video camera (Grundig Electronics, Nurnberg, Germany) using the software package Prima developed at the Protein Laboratory (University of Copenhagen, Copenhagen, Denmark). The length of neuronal processes per cell was estimated using the software package Process Length developed at the Protein Laboratory (Ronn et al. 2000). For estimation of neurite outgrowth, at least 200±20 cells were processed for each group in each individual experiment.

[8] = target: T1, IL1RI (Homo sapiens, UniProt P14778); assay: Kb (s^-1)
T1 construct: The recombinant protein comprising the whole extracellular part of IIL1RI was immobilised on the surface of a CM5 sensor chip
From the text: (§2) Table printed on a drawing sheet, Figure 3
Head of the field: Kb (s^-1)
(§3) First copying reader's note: Rate and affinity constants for binding to IL1RI; each cell holds the value with its ± error, and Ilantafin is a peptide while ILRa and IL1β are proteins.

[9] = target: T1, IL1RI; assay: ka (M^-1s^-1)
From the text: as §2
Head of the field: ka (M^-1s^-1)
as §3

In the case of “SGRKSSKMQA (also: tetrameric dendrimer; listed as Homo sapiens) [Ilantafin-d]”, the “clinical manifestations (clinical score) of CIA” value [1] is reported as “abrogated an increase in clinical manifestations of the disease”, the “neuronal survival / cell death (apoptosis) induced by lowering potassium” value [2] is reported as “promotes survival of cerebellar granule neurons” and the “inhibition of TNFα secretion by IL1β-activated macrophages” value (“inhibition of TNFα secretion” for short) [3] is reported as “inhibitory effect”. For the same molecule, the “inhibition of NF-κB activation induced by IL1β” value [4] was “inhibitory effect” and the “effect on STAT signalling induced by IL6” value [5] was “does not affect the activation of STAT signalling induced by IL6”.

With VTKFYFQED-OH [Ilantafin-4, VTKFYFQED] the solubility in water [6] was “not soluble in water”.

For “IL1β: Interleukin-1 beta, pro-inflammatory cytokine, agonist of the IL1 receptor [listing 1 of 2 here]”, the neurite outgrowth [7] was “does not affect neuritogenesis” and the “effect on Ilantafin- and IL1Ra-induced neurite outgrowth” value ([7]; co-treatment) was “inhibits Ilantafin- and IL1Ra induced neurite outgrowth”.

With NQKTFYLRNNQL-OH [Ilantafin-6] the “solubility in PBS or medium” value [6] was “not soluble in PBS or medium” and the solubility in water [6] was “soluble in water”.

For “IL1Ra: IL-1 receptor antagonist protein; commercial IL1Ra used as positive control”, the “inhibition of TNFα secretion” value [3] was “also inhibit macrophage activation”, the neurite outgrowth [7] was “induce neurite outgrowth in primary cerebellar neurons in a dose-dependent manner” and the “inhibition of NF-κB activation induced by IL1β” value [4] was “inhibitory effect”.

In the case of “KASQKGMSRS (listed as Homo sapiens) [Ilantafin scr-d2, reference compound]”, the “inhibition of NF-κB activation induced by IL1β” value [4] is reported as “neither two peptides with scrambled sequences, Ilantafin scr-d1 (KQSAGKRSMS) (SEQ ID NO:39), Ilantafin scr-d2 (KASQKGMSRS) (SEQ ID NO:40), nor a peptide with the reverseequence, Ilantafin rev-d (AQMKSSKRGS) (SEQ ID NO:41) inhibit the activation of NF-KB induced by IL1β”.

In the case of “EGVMVTKFYFQED-OH [Ilantafin-5, EGVMVTKFYFQED]”, the solubility [6] is reported as “completely insoluble when produced”.

With NQLVAGYLQGPNVN-OH [Ilantafin-3] the solubility in water [6] was “not soluble in water”.

In the case of “IL1β: Interleukin-1 beta, pro-inflammatory cytokine, agonist of the IL1 receptor [listing 2 of 2 here]”, the “Kb (s^-1)” value [8] is reported as 2.69 ± 0.58 x 10^-3 s^-1 and the “ka (M^-1s^-1)” value [9] is reported as 1.84 ± 0.20 x 10^5 M^-1s^-1.

In the case of “AQMKSSKRGS (listed as Homo sapiens) [Ilantafin rev-d, reference compound]”, the “inhibition of NF-κB activation induced by IL1β” value [4] is reported as “neither two peptides with scrambled sequences, Ilantafin scr-d1 (KQSAGKRSMS) (SEQ ID NO:39), Ilantafin scr-d2 (KASQKGMSRS) (SEQ ID NO:40), nor a peptide with the reverseequence, Ilantafin rev-d (AQMKSSKRGS) (SEQ ID NO:41) inhibit the activation of NF-KB induced by IL1β”.

In the case of SGRKSSKMQA-OH [Ilantafin-m], the “neuronal survival / cell death (apoptosis) induced by lowering potassium” value [2] is reported as “promotes survival of cerebellar granule neurons”, the “inhibition of TNFα secretion” value [3] is reported as “inhibitory effect” and the “inhibition of NF-κB activation induced by IL1β” value [4] is reported as “inhibitory effect”.

In the case of AGYLQGPNVN-OH [Ilantafin-2], the “solubility in PBS or medium” value [6] is reported as “not soluble in PBS or medium” and the solubility in water [6] is reported as “soluble in water”.

With “KQSAGKRSMS (listed as Homo sapiens) [Ilantafin scr-d1, reference compound]” the “inhibition of NF-κB activation induced by IL1β” value [4] was “neither two peptides with scrambled sequences, Ilantafin scr-d1 (KQSAGKRSMS) (SEQ ID NO:39), Ilantafin scr-d2 (KASQKGMSRS) (SEQ ID NO:40), nor a peptide with the reverseequence, Ilantafin rev-d (AQMKSSKRGS) (SEQ ID NO:41) inhibit the activation of NF-KB induced by IL1β”.

B1: SIL1RI: soluble IL1 receptor type 1 protein, positive control (protein)
chain: LEADKCKEREEKIILVSSANEIDVRPCPLNPNEHKGTITWYKDDSKTPVSTEQASRIHQHKEKLWFVPAKVEDSGHYYCVVRNSSYCLRIKISAKFVENEPNLCYNAQAIFKQKLPVAGDGGLVCPYMEFFKNENNELPKLQWYKDCKPLLLDNIHFSGVKDRLIVMNVAEKHRGNYTCHASYTYLGKQYPITRVIEFITLEENKPTRPVIVSPANETMEVDLGSQIQLICNVTGQLSDIAYWKWNGSVIDEDDPVLGEDYYSVENPANKRRSTLITVLNISEIESRFYKHPFTCFAKNTHGIDAAYIQLIYPVTNFQK
With B1 the “inhibition of TNFα secretion” value [3] was “also inhibit macrophage activation”, the neurite outgrowth [7] was “induce neurite outgrowth in primary cerebellar neurons in a dose-dependent manner” and the “inhibition of NF-κB activation induced by IL1β” value [4] was “inhibitory effect”.
